According to PubChem BioAssay (NCI):
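Cells were grown in 96-well plates and exposed to each compound for 48 hours at five concentrations; endpoints were interpolated linearly between bracketing concentrations, or set to the highest concentration if not reached. GI50: concentration for 50% inhibition of growth. TGI: concentration producing complete growth inhibition.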

Legend:
Assay in all cases: growth of human tumour cells (NCI), 48 h; in the data active means GI50 below about 0.43 µM; inactive means the rest
MALME-3M melanoma = system: MALME-3M melanoma
LOX IMVI melanoma = system: LOX IMVI melanoma
RXF 393 renal = system: RXF 393 renal
SK-MEL-5 melanoma = system: SK-MEL-5 melanoma
BT-549 breast = system: BT-549 breast
UACC-257 melanoma = system: UACC-257 melanoma
CCRF-CEM leukemia = system: CCRF-CEM leukemia
ACHN renal = system: ACHN renal
RPMI-8226 leukemia = system: RPMI-8226 leukemia
UACC-62 melanoma = system: UACC-62 melanoma
MDA-N = system: MDA-N
TK-10 renal = system: TK-10 renal
SF-295 CNS = system: SF-295 CNS
A498 renal = system: A498 renal
HS 578T breast = system: HS 578T breast
MDA-MB-231 breast = system: MDA-MB-231 breast
K-562 leukemia = system: K-562 leukemia
CAKI-1 renal = system: CAKI-1 renal
M14 melanoma = system: M14 melanoma
SK-MEL-28 melanoma = system: SK-MEL-28 melanoma
SK-MEL-2 melanoma = system: SK-MEL-2 melanoma
HL-60(TB) leukemia = system: HL-60(TB) leukemia
HCC-2998 colon = system: HCC-2998 colon
OVCAR-3 ovarian = system: OVCAR-3 ovarian
SNB-19 CNS = system: SNB-19 CNS
DU-145 prostate = system: DU-145 prostate
MDA-MB-435 = system: MDA-MB-435
OVCAR-4 ovarian = system: OVCAR-4 ovarian
NCI-H226 lung = system: NCI-H226 lung
NCI-H522 lung = system: NCI-H522 lung
786-0 renal = system: 786-0 renal
MOLT-4 leukemia = system: MOLT-4 leukemia
HT29 colon = system: HT29 colon
COLO 205 colon = system: COLO 205 colon
HOP-62 NSCLC = system: HOP-62 NSCLC
U251 CNS = system: U251 CNS
PC-3 prostate = system: PC-3 prostate
KM12 colon = system: KM12 colon
SN12C renal = system: SN12C renal
EKVX NSCLC = system: EKVX NSCLC
SK-OV-3 ovarian = system: SK-OV-3 ovarian
OVCAR-8 ovarian = system: OVCAR-8 ovarian
NCI-H23 lung = system: NCI-H23 lung
SF-539 CNS = system: SF-539 CNS
SF-268 CNS = system: SF-268 CNS
IGROV1 ovarian = system: IGROV1 ovarian
HOP-92 NSCLC = system: HOP-92 NSCLC
HCT-116 colon = system: HCT-116 colon
T-47D breast = system: T-47D breast
A549 NSCLC = system: A549 NSCLC
OVCAR-5 ovarian = system: OVCAR-5 ovarian
SNB-75 CNS = system: SNB-75 CNS
UO-31 renal = system: UO-31 renal
NCI/ADR-RES ovarian = system: NCI/ADR-RES ovarian
MCF7 breast = system: MCF7 breast
SR leukemia = system: SR leukemia
SW-620 colon = system: SW-620 colon
HCT-15 colon = system: HCT-15 colon
NCI-H460 lung = system: NCI-H460 lung

CCc1cn(C2CC(CO)C(CO)S2)c(=O)[nH]c1=O (stereo unspecified)
> 100 µM: TGI (MALME-3M melanoma) | TGI (LOX IMVI melanoma) | TGI (RXF 393 renal) | TGI (SK-MEL-5 melanoma) | TGI (BT-549 breast) | TGI (UACC-257 melanoma) | TGI (CCRF-CEM leukemia) | TGI (ACHN renal) | TGI (RPMI-8226 leukemia) | TGI (UACC-62 melanoma) | TGI (MDA-N) | TGI (TK-10 renal) | TGI (SF-295 CNS) | TGI (A498 renal) | TGI (HS 578T breast) | TGI (MDA-MB-231 breast) | TGI (K-562 leukemia) | TGI (CAKI-1 renal) | TGI (M14 melanoma) | TGI (SK-MEL-28 melanoma) | TGI (SK-MEL-2 melanoma) | TGI (HL-60(TB) leukemia) | TGI (HCC-2998 colon) | TGI (OVCAR-3 ovarian) | TGI (SNB-19 CNS) | TGI (DU-145 prostate) | TGI (MDA-MB-435) | TGI (OVCAR-4 ovarian) | TGI (NCI-H226 lung) | TGI (NCI-H522 lung) | TGI (786-0 renal) | TGI (MOLT-4 leukemia) | TGI (HT29 colon) | TGI (COLO 205 colon) | TGI (HOP-62 NSCLC) | TGI (U251 CNS) | TGI (PC-3 prostate) | TGI (KM12 colon) | TGI (SN12C renal) | TGI (EKVX NSCLC) | TGI (SK-OV-3 ovarian) | TGI (OVCAR-8 ovarian) | TGI (NCI-H23 lung) | TGI (SF-539 CNS) | TGI (SF-268 CNS) | TGI (IGROV1 ovarian) | TGI (HOP-92 NSCLC) | TGI (HCT-116 colon) | TGI (T-47D breast) | TGI (A549 NSCLC) | TGI (OVCAR-5 ovarian) | TGI (SNB-75 CNS) | TGI (UO-31 renal) | TGI (NCI/ADR-RES ovarian) | TGI (MCF7 breast) | TGI (SR leukemia) | TGI (SW-620 colon) | TGI (HCT-15 colon)
inactive: GI50 (SR leukemia) > 100 µM

CC(Oc1ccc(Cl)cc1Cl)C(=O)NN1C(=O)CC(=O)NC1=S (stereo unspecified)
> 100 µM: TGI (MALME-3M melanoma) | TGI (LOX IMVI melanoma) | TGI (RXF 393 renal) | TGI (SK-MEL-5 melanoma) | TGI (BT-549 breast) | TGI (UACC-257 melanoma) | TGI (ACHN renal) | TGI (RPMI-8226 leukemia) | TGI (UACC-62 melanoma) | TGI (MDA-N) | TGI (TK-10 renal) | TGI (SF-295 CNS) | TGI (A498 renal) | TGI (HS 578T breast) | TGI (MDA-MB-231 breast) | TGI (K-562 leukemia) | TGI (CAKI-1 renal) | TGI (M14 melanoma) | TGI (SK-MEL-28 melanoma) | TGI (SK-MEL-2 melanoma) | TGI (HCC-2998 colon) | TGI (OVCAR-3 ovarian) | TGI (SNB-19 CNS) | TGI (DU-145 prostate) | TGI (MDA-MB-435) | TGI (OVCAR-4 ovarian) | TGI (NCI-H226 lung) | TGI (NCI-H522 lung) | TGI (786-0 renal) | TGI (HT29 colon) | TGI (COLO 205 colon) | TGI (HOP-62 NSCLC) | TGI (U251 CNS) | TGI (PC-3 prostate) | TGI (KM12 colon) | TGI (SN12C renal) | TGI (NCI-H460 lung) | TGI (EKVX NSCLC) | TGI (SK-OV-3 ovarian) | TGI (OVCAR-8 ovarian) | TGI (NCI-H23 lung) | TGI (SF-539 CNS) | TGI (SF-268 CNS) | TGI (IGROV1 ovarian) | TGI (HOP-92 NSCLC) | TGI (HCT-116 colon) | TGI (T-47D breast) | TGI (A549 NSCLC) | TGI (OVCAR-5 ovarian) | TGI (SNB-75 CNS) | TGI (UO-31 renal) | TGI (NCI/ADR-RES ovarian) | TGI (MCF7 breast) | TGI (SR leukemia) | TGI (SW-620 colon) | TGI (HCT-15 colon)
91.8 µM: TGI (HL-60(TB) leukemia)
